Measured values taken from patent publication US6265423A, “Aromatic polycyclic retinoid-type derivatives, method for preparing same, and use thereof for making pharmaceutical and cosmetic compositions” (priority 1996, dated 2001).
Entries after “also recorded” stand apart in the source; their conditions may differ.

Assays:
[1] = tested on: Gal4-RARγ; assay: Transactivation, chimerical receptor Gal4-RARγ (transitory transfection of HeLa); format: cell-based; details: 100% = TTNPB 10^-8 M
[2] = tested on: MCF-7 cells; assay: Effect on oestrogen-induced proliferation of MCF-7 cells; format: cell-based, human; details: estradiol 10^-9 M
Method: MCF-7 cells and HeLa are cultivated in DMFM with phenol red to which 5% foetal calf serum is added. […] The experimental tests are carried out in DMEM without phenol red to which foetal calf serum treated with dextran carbon is added at 3%. […] The experiments using the different retinoids are carried out sheltered from the light so as to avoid any isomerisation.

[3] = tested on: human mammary tumoral lineage T-47D; assay: Clonogenic test (soft agar), growth of cellular colonies; format: cell-based; details: T-47D, soft agar
Description: The human tumour stem cells are the clonogenic cells which are the origin of the neoplasic cells which constitute a given tumour. These tumour stem cells are responsible for the recidivism process observable after surgical resection of the primary tumours and are also responsible for the formation of metastases. […] At the level of a tumour or of a tumoral cellular lineage, these clonogenic stem cells distinguish themselves from other clonogenic cells of the tumour or of the neoplasic cellular lineage being considered, by the fact that they preserve their ability to proliferate in the absence of any solid support.
This technique is suitable for the culturing in vitro of most of the tumours and tumoral cellular lineages of various histological types. In the context of this test, the neoplastic cells are cultured on a semi-solid culture medium "soft agar" made up of a mixture of agar and agarose. On this selective support, only tumoral stem cells survive and proliferate. […] The morphological characteristics and the growth of the cellular colonies are also a function of the histological type of the tumours being considered.
These culture conditions are also called "anchorage-independent" conditions.
The base medium "MEM 25 MM HEPES" (Minimum Essential Medium, Life Technologies, Belgium) contains Eagle salts but no L-glutamine. This medium is well suited to the growth of a range of varied diploid cells or primary mammal cells. To this medium is then added:
The tumoral cells are maintained in culture in 25 cm^2 falcon dishes (Life Technologies, Belgium). They are then trypsinised and individualised. Their rate of viability is determined by coloration with trypan blue (Sigma, Belgium). It must be greater than 90%. In the case where this condition is kept to, a cellular suspension at the desired concentration is prepared in a solution of agar at 0. 3%. The cells are then seeded between two layers of agar (Sigma, Belgium) and in 35 mm Petri dishes (Life Technologies, Belgium). The base layer is made up of a 0.5% solution of agar and the top layer is made up of a 0.3% solution of agar. The cupules are then positioned and held in an incubator at 37° C. and 5% of CO2. […] After treatment, the cupules are kept in the incubator for 21 days. It is advisable to examine, during the course of the experiment, the appearance and the increase of the cellular colonies. If after 10 days, no colony appears or is developing, the experiment must be repeated. In the contrary case, on the 21st day, 100 μl of an MTT solution (3-(4,5-dimethylthiazol-2-yl)-2,5 diphenyl tetrazolium bromide; Sigma, Belgium) dissolved in the RPMI culture medium (Roswell park Memorial Institute, Life Technologies, Belgium), at the concentration of 1 mg/ml are deposited on the top layer of the group of cupules. The cells are kept in contact with this solution for a minimum of 3 hours at 37° C.
Using an inverted microscope at low magnification, the number of clones whose surface area is greater thar. 100 μm^2 is determined for the group of cupules representing all the different experimental conditions. Then, for each of these experimental conditions, the mean number of cellular colonies±the standard error on the mean (ESM) is calculated.
The mean number of cellular colonies determined for each experimental condition is expressed as a percentage in relation to the control condition made equal to 100%.

[4] = tested on: Gal4-RARβ; assay: Transactivation, chimerical receptor Gal4-RARβ (transitory transfection of HeLa); format: cell-based; details: 100% = TTNPB 10^-8 M
[5] = tested on: RAR-ERcassettes (RARα, RARβ, RARγ); assay: Chimerical receptors RAR-ERcassettes, overall profile; format: cell-based
Description: (§1) The HeLa cells are co-transfected by a plasmid which codes for a retinoic receptor in which the C domain of bonding to the DNA is substituted by that of the receptor to RE oestrogens, and a plasmid which places the expression of the luciferase under the control of an ERE (Element of Response to Oestrogens). The expressed chimerical receptors are designated as RARα-ERcassette, RARβ-ERcassette, RARγ-ERcassette and RXRα-ERcassette. The A, B, D, E and F regions of the natural receptor are preserved as well as the transcriptional co-operation between the activation domains AF-1 and AF-2. These transitory transfection experiments follow the method of co-precipitation to calcium phosphate. The HeLa cells are co-transfected by […] of plasmid coding for the chimerical receptor, […] of reporter plasmid and […] of expression vector CMV-β-galactosidase used as an internal control of transfection. 24 hours after the transfection, the cells are incubated for 16 hours with the different effectors.
(§2) In this type of chimerical receptor, the C domain of bonding to the DNA of RAR is substituted by that of the receptor to the RE oestrogens. The protein obtained is close to the natural RAR receptor and preserves the transcriptional properties of the AF-1 and AF-2 domains. It modulates the transcription by means of an ERE. This RAR-ERcassette model allows one to observe a transcriptional response to a more physiological ligand.

[6] = tested on: RARβ-ERcassette; assay: Transactivation, chimerical receptor RARβ-ERcassette (HeLa); format: cell-based; details: TTNPB 10^-8 M = 100
Description: as §1, §2

[7] = tested on: AP-1, MTLN lineage (MCF-7); assay: Anti-AP-1 effect, MTLN lineage activated by TPA; format: cell-based, human; details: TPA-activated MTLN cells
Method: (§3) Certain properties of the retinoids have been determined using more developed cellular models. These models consist of cellular lineages transfected in a stable fashion by recombinant plasmids which place the expression of the gene of the luciferase under the control of different nuclear response elements. […] The tests carried out in duplicate are described below for each of these models.
The anti-factor AP-1 transrepressor effect of retinoids is determined using the MTLN lineage, coming from MCF-7 cells transfected in a stable fashion by a vector p(TRE)3 -tk-Luc which places the expression of the gene of luciferase under the control of […]. TPA activates the AP-1 complex formed from proteins of the family of nuclear proto-oncogenes (c-Jun and c-Fos). […] The experiments are made with the MTLN cells activated by 10^-7 M TPA.
The effect of the compounds on the MTLN cells activated by 10^-7 M TPA is expressed as a percentage. […] The inhibitive properties of the products are calculated after deduction of the base activity of the cells. The percentages reported correspond to a range of inhibitions determined from several experiments.

[8] = tested on: RARE, endogenic RAR and RXR receptors, HRL+N lineage; assay: HRL+N transactivation (RARE-luciferase, stably transfected HeLa); format: cell-based
Method: (§4) MCF-7 cells and HeLa are cultivated in DMFM with phenol red to which 5% foetal calf serum is added. The T47-D cells are cultivated in RPMI to which 10% foetal calf serum is added. The experimental tests are carried out in DMEM without phenol red to which foetal calf serum treated with dextran carbon is added at 3%. […] The experiments using the different retinoids are carried out sheltered from the light so as to avoid any isomerisation.
as §3
The cellular lineages HRLN and HRL+N allow one to study the activation of an RARE by endogenic receptors using ligands at physiological concentrations. These lineages derive from HeLa cells transfected in a stable fashion by a reporter gene which places the expression of the gene of the luciferase under the control of a nuclear response element RARE (RARE3 -tk-Luc). The HeLa cells express all the known receptors of the retinoic acid (RARα,β,γ and RXRα,β,γ) with a predominance of RARα and RXRα. The response element RARE used for the HRLN cells corresponds to the sequence of the natural gene of the RARβ receptor (GGTTCAnnnnnAGTTCA). The HRL+N cells comprise the sequence GAGTGAnnnnnCGGTGA.
The HRL+N lineage allows one to visualise a co-activation of the RAR and RXR receptors at the level of the RAR-RXR hetero-dimer.

[9] = tested on: A549 human pulmonary cancer cells; assay: MTT test, proliferation of A549; format: cell-based; details: MTT test
[10] = tested on: T-47D cells; assay: Effect on oestrogen-induced proliferation of T-47D cells; format: cell-based, human; details: estradiol 10^-9 M
Method: as §4
So as to test the anti-proliferation effect of the retinoids, growth experiments under oestrogenic conditions were carried out on cells MCF-7 and T-47D. These are the human oestrogen-dependent mammary cancer cells which express the receptor to RE oestrogens. The effect of the molecules is evaluated after 7 days of culture in oestrogenic conditions (estradiol 10^-9 M) by dosing the cellular DNA. The cells are distributed in 24 well plates at a density of 2×10^4 cells per well. The tests with the different retinoids are carried out in triplicate and the culture medium is changed after 4 days of growth.

C=C(c1ccc(C(=O)O)cc1)c1cc2c(cc1C)C(C)(C)CCC2(C)C [LGD1069, reference compound]
GAL4-RAR RARγ transactivation ([1]; 10^-6 M): 29% | GAL4-RAR RARγ transactivation ([1]; 10^-7 M): 8% | GAL4-RAR RARγ transactivation ([1]; 10^-8 M): 1% | effect on oestrogen-induced growth, MCF-7 (in words) [2]: exerts no effect whatsoever on the growth of MCF-7 and T-47D cells in oestrogenic conditions | effect on growth of cellular colonies (in words) [3]: strongly and significantly inhibits the growth of cellular colonies of the T-47D lineage | GAL4-RAR RARβ transactivation ([4]; 10^-7 M): 5% | GAL4-RAR RARβ transactivation ([4]; 10^-8 M): 1% | RAR-ERcassette profile (in words) [5]: transcriptional power appears higher notably through the RARβ-ERcassette; also recorded: permits a co-activation of RAR and RXR, bringing about an over-activation of the hetero-dimer in comparison with the specific RAR activation of TTNPB | RAR-ERcassette RARβ transactivation ([6]; 10^-6 M): 237% | RAR-ERcassette RARβ transactivation ([6]; 10^-7 M): 194% | anti-AP-1 effect (in words) [7]: causes an inhibition of the AP-1 route; also recorded: the most effective compound tested in this model | HRL+N transactivation (in words) [8]: induce a stronger transactivation with the HRL+N cells; also recorded: behaves as a panagonistic molecule | effect on cellular increase, A549 (in words) [9]: induces a stimulation of the proliferation of the A549 cells at 10^-6 M and 10^-8 M | effect on oestrogen-induced growth, T-47D (in words) [10]: exerts no effect whatsoever on the growth of MCF-7 and T-47D cells in oestrogenic conditions
